Our source for the IC50 values is patent US12344597B2, “Alkoxy-substituted pyridinyl derivatives as LPA1 receptor antagonists and their use in the treatment of fibrosis” (IDORSIA PHARMACEUTICALS LTD, priority 2018, dated 2025).

Sequence of human LPA1 receptor (Q92633 whole entry): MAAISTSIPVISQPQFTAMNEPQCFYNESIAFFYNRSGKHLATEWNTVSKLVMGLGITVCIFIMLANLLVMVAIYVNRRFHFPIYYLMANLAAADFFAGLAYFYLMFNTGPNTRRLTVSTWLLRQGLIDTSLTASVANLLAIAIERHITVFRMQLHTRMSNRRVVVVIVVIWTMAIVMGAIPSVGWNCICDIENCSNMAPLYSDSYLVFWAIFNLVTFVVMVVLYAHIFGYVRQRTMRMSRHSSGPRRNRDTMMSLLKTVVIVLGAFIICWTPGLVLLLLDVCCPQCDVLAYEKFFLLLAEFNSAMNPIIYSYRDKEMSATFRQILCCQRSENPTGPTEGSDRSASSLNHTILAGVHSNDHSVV

This test concerns the target human LPA1 receptor (Homo sapiens (Human), UniProt Q92633). Put plainly: Beta-arrestin recruitment assay to determine IC50 values for human LPAR1. The class given is cell-based. The conditions noted are these: antagonist mode, Tango EDG2-bla U2OS cells, LPA 18:1 500 nM final. From the text:
Beta-Arrestin Recruitment Assay to Determine IC50 Values for Human LPAR1
The Tango™ EDG2-bla U2OS cells are obtained from Invitrogen. These cells contain the human LPA1 receptor cDNA linked to a TEV protease site and a Gal4-VP16 transcription factor integrated into the Tango™ GPCR-bla U2OS parental cell line. This parental cell line stably expresses a beta-arrestin/TEV protease fusion protein and the beta-lactamase (bla) reporter gene under the control of a UAS response element. Upon LPA (agonist) binding, LPA1 receptor gets activated, leading to arrestin-protease recruitment and proteolytic release of the transcription factor: The transcription factor then regulates transcription of a beta-lactamase reporter construct, which is measured upon addition of the live-cell substrate.
10′000 Tango™ EDG2-bla U2OS cells are seeded in a 384-well black with clear bottom plate in 30 μl Freestyle 293 Expression Medium (Invitrogen) and incubated for 20 h at 37° C., 5% CO2. […] IC50 is the concentration of antagonist inhibiting 50% of the maximal response.
On the technique in general: Arrestin recruitment assays detect the binding of arrestin to an activated receptor.
For orientation: IC50 means the point on the concentration scale where inhibition reaches its midpoint. A higher IC50 goes with weaker potency. `Cc1ccc(NC(=O)C2(c3ccccc3C(C)C)CN(Cc3ccc(C(=O)O)o3)C2)c(OC(F)F)n1` [Ex 11-57, 5-((3-((2-(difluoromethoxy)-6-methylpyridin-3-yl)carbamoyl)-3-(2-isopropylphenyl)azetidin-1-yl)methyl)furan-2-carboxylic acid] displayed an IC50 of 12 nM.

Molecule `CCOC(=O)Cc1coc(CN2CC(C(=O)Nc3ccc(C)nc3OC(F)F)(c3ccccc3C(C)C)C2)n1` [Ex 11-58, ethyl 2-(2-((3-((2-(difluoromethoxy)-6-methylpyridin-3-yl)carbamoyl)-3-(2-isopropylphenyl)azetidin-1-yl)methyl)oxazol-4-yl)acetate] registered an IC50 of 68 nM.

With `Cc1ccc(NC(=O)C2(c3ccccc3C(C)C)CN(Cc3nc(CC(=O)O)co3)C2)c(OC(F)F)n1` [Ex 11-59, 2-(2-((3-((2-(difluoromethoxy)-6-methylpyridin-3-yl)carbamoyl)-3-(2-isopropylphenyl)azetidin-1-yl)methyl)oxazol-4-yl)acetic acid], the IC50 came out at 38 nM.

For the molecule `Cc1ccc(NC(=O)C2(c3ccccc3C(C)C)CN(CCCC(C)(C)C#N)C2)c(OC(F)F)n1` [Ex 11-60, 1-(4-cyano-4-methylpentyl)-N-(2-(difluoromethoxy)-6-methylpyridin-3-yl)-3-(2-isopropylphenyl)azetidine-3-carboxamide], the IC50 is 47 nM.

Turning to `Cc1ccc(NC(=O)C2(c3ccccc3C(C)C)CN(CCCC(C)(C)[N+](=O)[O-])C2)c(OC(F)F)n1` [Ex 11-61, N-(2-(difluoromethoxy)-6-methylpyridin-3-yl)-3-(2-isopropylphenyl)-1-(4-methyl-4-nitropentyl)azetidine-3-carboxamide], the IC50 amounted to 39 nM.

On to `CNCCN1CC(C(=O)Nc2ccc(C)nc2OC(F)F)(c2ccccc2C(C)C)C1` [Ex 11-62, N-(2-(difluoromethoxy)-6-methylpyridin-3-yl)-3-(2-isopropylphenyl)-1-(2-(methylamino)ethyl)azetidine-3-carboxamide], for which the IC50 is 48 nM. The IC50 values of the last two molecules are within 1.5-fold of each other.

`CCNCCN1CC(C(=O)Nc2ccc(C)nc2OC(F)F)(c2ccccc2C(C)C)C1` [Ex 11-63, N-(2-(difluoromethoxy)-6-methylpyridin-3-yl)-1-(2-(ethylamino)ethyl)-3-(2-isopropylphenyl)azetidine-3-carboxamide] registered an IC50 of 92 nM.

The molecule `CNC(C)(C)CN1CC(C(=O)Nc2ccc(C)nc2OC(F)F)(c2ccccc2C(C)C)C1` [Ex 11-64, N-(2-(difluoromethoxy)-6-methylpyridin-3-yl)-3-(2-isopropylphenyl)-1-(2-methyl-2-(methylamino)propyl)azetidine-3-carboxamide] had an IC50 of 63 nM.

Molecule `Cc1ccc(NC(=O)C2(c3ccccc3C(C)C)CN(CCCC(C)(C)O)C2)c(OC(F)F)n1` [Ex 11-66, N-(2-(difluoromethoxy)-6-methylpyridin-3-yl)-1-(4-hydroxy-4-methylpentyl)-3-(2-isopropylphenyl)azetidine-3-carboxamide] yielded an IC50 of 14 nM.

Consider `COC(=O)CC1(CN2CC(C(=O)Nc3ccc(C)nc3OC(F)F)(c3ccccc3C(C)C)C2)CC1` [Ex 11-67, Methyl 2-(1-((3-((2-(difluoromethoxy)-6-methylpyridin-3-yl)carbamoyl)-3-(2-isopropylphenyl)azetidin-1-yl)methyl)cyclopropyl)acetate], for which the IC50 was 326 nM.

Molecule `Cc1ccc(NC(=O)C2(c3ccccc3C(C)C)CN(CC3(CC(=O)O)CC3)C2)c(OC(F)F)n1` [Ex 11-68, 2-(1-((3-((2-(difluoromethoxy)-6-methylpyridin-3-yl)carbamoyl)-3-(2-isopropylphenyl)azetidin-1-yl)methyl)cyclopropyl)acetic acid] showed an IC50 of 23 nM. Compared with the last molecule, the IC50 is about 14-fold lower.

`Cc1ccc(NC(=O)C2(c3ccccc3C(C)C)CN(CCCC(C)(C)C(=O)O)C2)c(OC(F)F)n1` [Ex 11-69, 5-(3-((2-(difluoromethoxy)-6-methylpyridin-3-yl)carbamoyl)-3-(2-isopropylphenyl)azetidin-1-yl)-2,2-dimethylpentanoic acid] gave an IC50 of 15 nM.

Regarding `COC(=O)C1(CCCN2CC(C(=O)Nc3ccc(C)nc3OC(F)F)(c3ccccc3C(C)C)C2)CC1` [Ex 11-70, methyl 1-(3-(3-((2-(difluoromethoxy)-6-methylpyridin-3-yl)carbamoyl)-3-(2-isopropylphenyl)azetidin-1-yl)propyl)cyclopropane-1-carboxylate], 69 nM corresponded to half-maximal inhibition (IC50).

`Cc1ccc(NC(=O)C2(c3ccccc3C(C)C)CN(CCCC3(C(=O)O)CC3)C2)c(OC(F)F)n1` [Ex 11-71, 1-(3-(3-((2-(difluoromethoxy)-6-methylpyridin-3-yl)carbamoyl)-3-(2-isopropylphenyl)azetidin-1-yl)propyl)cyclopropane-1-carboxylic acid] displayed an IC50 of 7 nM.

Consider `Cc1ccc(NC(=O)C2(c3ccccc3C(C)C)CN(CCC3(C(=O)O)CC3)C2)c(OC(F)F)n1` [Ex 11-72, 1-(2-(3-((2-(difluoromethoxy)-6-methylpyridin-3-yl)carbamoyl)-3-(2-isopropylphenyl)azetidin-1-yl)ethyl)cyclopropane-1-carboxylic acid], for which the IC50 turned out to be 52 nM.

Take `Cc1ccc(NC(=O)C2(c3ccccc3C(C)C)CN(CCC3(C(=O)O)CCC3)C2)c(OC(F)F)n1` [Ex 11-73, 1-(2-(3-((2-(difluoromethoxy)-6-methylpyridin-3-yl)carbamoyl)-3-(2-isopropylphenyl)azetidin-1-yl)ethyl)cyclobutane-1-carboxylic acid]: the IC50 worked out at 46 nM.

As to `CCOC(=O)COCCN1CC(C(=O)Nc2ccc(C)nc2OC(F)F)(c2ccccc2C(C)C)C1` [Ex 11-74, ethyl 2-(2-(3-((2-(difluoromethoxy)-6-methylpyridin-3-yl)carbamoyl)-3-(2-isopropylphenyl)azetidin-1-yl)ethoxy)acetate], the IC50 is 28 nM. Against the preceding molecule, the IC50 is about 1.6-fold lower.

As for `Cc1ccc(NC(=O)C2(c3ccccc3C(C)C)CN(CCOCC(=O)O)C2)c(OC(F)F)n1` [Ex 11-75, 2-(2-(3-((2-(difluoromethoxy)-6-methylpyridin-3-yl)carbamoyl)-3-(2-isopropylphenyl)azetidin-1-yl)ethoxy)acetic acid], half-maximal inhibition (IC50) required 29 nM.

In turn, `Cc1ccc(NC(=O)C2(c3ccccc3C(C)C)CN(CCC3(C(=O)O)CCOC3)C2)c(OC(F)F)n1` (stereo not shown) [Ex 11-76, 3-(2-(3-((2-(difluoromethoxy)-6-methylpyridin-3-yl)carbamoyl)-3-(2-isopropylphenyl)azetidin-1-yl)ethyl)tetrahydrofuran-3-carboxylic acid] gave an IC50 of 18 nM.

As for `Cc1ccc(NC(=O)C2(c3ccccc3C(C)C)CN(CCN(C)C)C2)c(OC(F)F)n1` [Ex 11-78, N-(2-(difluoromethoxy)-6-methylpyridin-3-yl)-1-(2-(dimethylamino)ethyl)-3-(2-isopropylphenyl)azetidine-3-carboxamide], the IC50 is 191 nM.

Molecule `CCOC(=O)CNCCN1CC(C(=O)Nc2ccc(C)nc2OC(F)F)(c2ccccc2C(C)C)C1` [Ex 11-79, Ethyl (2-(3-((2-(difluoromethoxy)-6-methylpyridin-3-yl)carbamoyl)-3-(2-isopropylphenyl)azetidin-1-yl)ethyl)glycinate] yielded a half-inhibitory concentration (IC50) of 19 nM. Against the preceding molecule, the IC50 is about 10-fold lower.

Take `Cc1ccc(NC(=O)C2(c3ccccc3C(C)C)CN(CCNCC(=O)O)C2)c(OC(F)F)n1` [Ex 11-80, (2-(3-((2-(difluoromethoxy)-6-methylpyridin-3-yl)carbamoyl)-3-(2-isopropylphenyl)azetidin-1-yl)ethyl)glycine]: inhibition was half-maximal at 297 nM (IC50).

For `CCOC(=O)CN(C)CCN1CC(C(=O)Nc2ccc(C)nc2OC(F)F)(c2ccccc2C(C)C)C1` [Ex 11-81, Ethyl N-(2-(3-((2-(difluoromethoxy)-6-methylpyridin-3-yl)carbamoyl)-3-(2-isopropylphenyl)azetidin-1-yl)ethyl)-N-methylglycinate], the IC50 turned out to be 88 nM.

`Cc1ccc(NC(=O)C2(c3ccccc3C(C)C)CN(CCN(C)CC(=O)O)C2)c(OC(F)F)n1` [Ex 11-82, N-(2-(3-((2-(difluoromethoxy)-6-methylpyridin-3-yl)carbamoyl)-3-(2-isopropylphenyl)azetidin-1-yl)ethyl)-N-methylglycine] registered an IC50 of 193 nM.

Regarding `Cc1ccc(NC(=O)C2(c3ccccc3C(C)C)CN(C[C@@H](O)CN)C2)c(OC(F)F)n1` [Ex 11-83, (S)-1-(3-amino-2-hydroxypropyl)-N-(2-(difluoromethoxy)-6-methylpyridin-3-yl)-3-(2-isopropylphenyl)azetidine-3-carboxamide], the IC50 is 20 nM. This IC50 lies about 9.7-fold lower than the previous one.

With `CNC[C@H](O)CN1CC(C(=O)Nc2ccc(C)nc2OC(F)F)(c2ccccc2C(C)C)C1` [Ex 11-84, (S)-N-(2-(difluoromethoxy)-6-methylpyridin-3-yl)-1-(2-hydroxy-3-(methylamino)propyl)-3-(2-isopropylphenyl)azetidine-3-carboxamide], 45 nM corresponded to half-maximal inhibition (IC50).

In turn, `Cc1ccc(NC(=O)C2(c3ccccc3C(C)C)CN(C[C@@H](O)CN(C)C)C2)c(OC(F)F)n1` [Ex 11-85, (S)-N-(2-(difluoromethoxy)-6-methylpyridin-3-yl)-1-(3-(dimethylamino)-2-hydroxypropyl)-3-(2-isopropylphenyl)azetidine-3-carboxamide] returned an IC50 of 191 nM. This IC50 lies about 4.2-fold higher than the previous one.

For `Cc1ccc(NC(=O)C2(c3ccccc3C(C)C)CN(C[C@@H](O)CNC(=O)CO)C2)c(OC(F)F)n1` [Ex 11-86, (S)-N-(2-(difluoromethoxy)-6-methylpyridin-3-yl)-1-(2-hydroxy-3-(2-hydroxyacetamido)propyl)-3-(2-isopropylphenyl)azetidine-3-carboxamide], the IC50 came to 10 nM.
